Where a name gives a salt, the structure may show the parent alone.
System: HiBiT-HSD17β13 fusion protein (N-terminal HiBiT-tagged HSD17β13 isoform D) in Huh7 HiBiT-HSD17β13 OE cells
Assay: Whole-cell Huh7-HSD17B13 HiBiT assay (degrader potency and maximal efficacy, luminescence readout)
Type: cell-based, human
Conditions: 24 hour incubation, geometric mean, * = geometric mean for all forms tested (parent and salt forms); for DC50: read-out: Huh7_HIBIT-HSD17β13_DC50 GMean DC50; for Huh7_HIBIT-HSD17β13_DC50 GMean Asymptote Maximum: max. concentration 1 μM
Procedure: Degrader potency and maximal efficacy of test compounds were determined using a whole-cell Huh7-HSD17B13 HiBiT assay, utilizing a luminescence readout. A HiBiT tag was fused to the N-terminus of HSD17β13, and therefore the HiBiT luminescence signal produced in the assay was proportional to the level of HiBiT-HSD17β13 fusion protein in a sample.
A Huh7 HiBiT-HSD17β13 OE cell line was generated using electroporation with an N-terminal HiBiT-tagged HSD17β13 isoform D overexpression plasmid, followed by geneticin selection to produce a stable pool. Clones were created with varying HiBiT signals to optimize HiBiT HSD17 β13 ratios. A clone with similar HSD17β13 expression levels as human primary hepatocytes was selected for the compound screen.
Greiner 384-well white opaque, flat bottom, tissue culture treated plates (Greiner #781080) were used for both HiBiT and CTG assays. The treated plates were spotted with 25 nL of a compound which had been serial diluted 1 in 3.162 in 100% DMSO for an 11-point concentration response curve, with duplicate points at each concentration. The maximum concentration of the compounds was 1 mM, which was later diluted with cell suspension for a maximum concentration of 1 μM). High percentage effect (HPE) wells and zero percentage effect (ZPE) wells located in columns 1 and 24 were spotted with 25 nL of DMSO (Sigma #D2650) using an ECHO Acoustic Liquid Handler (Labcyte Echo 550 Series). Each plate was performed in duplicate.
The Huh7 HiBiT-HSD17β13 OE cells were plated on top of a compound or a DMSO control at 3,000 viable cells/well in 25 μL growth media (DMEM (Gibco #10569), 10% FBS HI (Gibco #16140), 1× Pen/Strep (Gibco #15070), 1×MEM Non-Essential Amino Acids (Gibco #11140), and 300 μg/mL Geneticin (Gibco #10131) in columns 2-24 of the plates. Huh7 parental cells were plated using the same parameters in column 1 (HPE) in the same culture medium, excluding Geneticin selection. Cells were incubated overnight with the compounds for 24 hours (with lid) at 37° C. ([…]).
Each assay was conducted after a 24 hour incubation period. In the HiBiT assay plates, 25 μL of complete Nano-Glo HiBiT Lytic detection system (Promega #PRN3040), consisting of HiBiT Lytic Buffer with the addition of 1:100 LgBiT Protein and 1:50 Substrate, was added to each well. In CTG counter screen plates, 25 μL of Cell Titer-Glo Luminescent Reagent (Promega #G7573) was added to each well. Both plates were centrifuged for 2 minutes at 1000 rpm and incubated at room temperature, in the dark, for 10 minutes. Then Luminescence was read using an EnVision Plate Reader (Perkin Elmer PE2103).
The raw data from the Envision Plate Reader was expressed as relative luminescence units (RLUs) for each well of the assay plates. Using HPE and ZPE controls, the % effect was calculated for each sample well as follows: Percent effect=[(sample RLU−HPE RLU)\(ZPE RLU−HPE RLU)]*100. The percent effect was plotted versus the compound concentration and a 50% degradation ([…]) was determined using a four-parameter logistic dose response equation. The raw data was analyzed using ABase (IDBS).

Cn1c(=O)n(C2CCC(=O)NC2=O)c2ccc(CCN3CCN(c4nccc(-c5nc([C@]67CC[C@](CNC(=O)c8cc(F)c(O)c(F)c8F)(CC6)CC7)no5)n4)CC3)cc21 (mixture of isomers) [Example 60, N-{[4-(5-{2-[4-(2-{1-[(3RS)-2,6-dioxopiperidin-3-yl]-3-methyl-2-oxo-2,3-dihydro-1H-benzimidazol-5-yl}ethyl)piperazin-1-yl]pyrimidin-4-yl}-1,2,4-oxadiazol-3-yl)bicyclo[2.2.2]octan-1-yl]methyl}-2,3,5-trifluoro-4-hydroxybenzamide, trifluoroacetate salt]
DC50: 650 pM | Huh7_HIBIT-HSD17β13_DC50 GMean Asymptote Maximum: 78%

Cn1c(=O)n(C2CCC(=O)NC2=O)c2ccc(CCCN3CCc4cc(-c5ccc6cn([C@H]7CC[C@H](CNC(=O)c8cc(F)c(O)c(F)c8F)CC7)nc6c5)ccc4C3)cc21 (mixture of isomers) [Example 34, N-{[(1r,4r)-4-{6-[2-(3-{1-[(3RS)-2,6-dioxopiperidin-3-yl]-3-methyl-2-oxo-2,3-dihydro-1H-benzimidazol-5-yl}propyl)-1,2,3,4-tetrahydroisoquinolin-6-yl]-2H-indazol-2-yl}cyclohexyl]methyl}-2,3,5-trifluoro-4-hydroxybenzamide, trifluoroacetate salt]
DC50: 230 pM | Huh7_HIBIT-HSD17β13_DC50 GMean Asymptote Maximum: 81%

Cn1c(=O)n(C2CCC(=O)NC2=O)c2ccc(CCCN3CCN(c4cccc(-c5nc(C67CCC(CNC(=O)c8cc(F)c(O)c(F)c8F)(CC6)CC7)no5)c4)CC3)cc21 (racemic) [Example 81, N-{[4-(5-{3-[4-(3-{1-[(3RS)-2,6-dioxopiperidin-3-yl]-3-methyl-2-oxo-2,3-dihydro-1H-benzimidazol-5-yl}propyl)piperazin-1-yl]phenyl}-1,2,4-oxadiazol-3-yl)bicyclo[2.2.2]octan-1-yl]methyl}-2,3,5-trifluoro-4-hydroxybenzamide]
DC50: 860 pM | Huh7_HIBIT-HSD17β13_DC50 GMean Asymptote Maximum: 81%

O=C1CCN(c2cc(C(=O)N3CCN(CC4CCN(c5ncc(-c6ccc7cn([C@H]8CC[C@H](CNC(=O)c9cc(F)c(O)c(F)c9F)CC8)nc7c6)cn5)CC4)CC3)ccc2Cl)C(=O)N1 [Example 108, N-{[(1r,4r)-4-(6-{2-[4-({4-[4-chloro-3-(2,4-dioxo-1,3-diazinan-1-yl)benzoyl]piperazin-1-yl}methyl)piperidin-1-yl]pyrimidin-5-yl}-2H-indazol-2-yl)cyclohexyl]methyl}-2,3,5-trifluoro-4-hydroxybenzamide]
DC50: 1300 pM | Huh7_HIBIT-HSD17β13_DC50 GMean Asymptote Maximum: 80%

Cn1c(=O)n(C2CCC(=O)NC2=O)c2ccc(CCCN3C[C@H]4CN(c5ccc6cn([C@H]7CC[C@H](CNC(=O)c8cc(F)c(O)c(F)c8F)CC7)nc6c5)C[C@@H]4C3)cc21 (mixture of isomers) [Example 118, N-{[(1r,4r)-4-{6-[(3aS,6aS)-5-(3-{1-[(3RS)-2,6-dioxopiperidin-3-yl]-3-methyl-2-oxo-2,3-dihydro-1H-benzimidazol-5-yl}propyl)hexahydropyrrolo[3,4-c]pyrrol-2(1H)-yl]-2H-indazol-2-yl}cyclohexyl]methyl}-2,3,5-trifluoro-4-hydroxybenzamide, trifluoroacetate salt]
DC50: 2900 pM | Huh7_HIBIT-HSD17β13_DC50 GMean Asymptote Maximum: 78%

Cl.O=C1CCN(c2cnn3cc(CCCN4CCN(c5cnc(-c6ccc7cn([C@H]8CC[C@H](CNC(=O)c9cc(F)c(O)c(F)c9F)CC8)nc7c6)cn5)CC4)ccc23)C(=O)N1 [Example 10, N-{[(1r,4r)-4-{6-[5-(4-{3-[3-(2,4-Dioxo-1,3-diazinan-1-yl)pyrazolo[1,5-a]pyridin-6-yl]propyl}piperazin-1-yl)pyrazin-2-yl]-2H-indazol-2-yl}cyclohexyl]methyl}-2,3,5-trifluoro-4-hydroxybenzamide, hydrochloride salt]
DC50: 280 pM | Huh7_HIBIT-HSD17β13_DC50 GMean Asymptote Maximum: 82%
